Test results as given in US20230391758A1, “MODIFIED BENZOFURAN-CARBOXAMIDES AS GLUCOSYLCERAMIDE SYNTHASE INHIBITORS” (MERCK SHARP & DOHME CORP., priority 2020, published 2023).

Biological target: GCS enzyme (glucosylceramide synthase) contained within Golgi preparations isolated from human A375 malignant melanoma skin cells (Homo sapiens (Human), UniProt Q16739)
Assay: UDP-Glo glucosylceramide synthase biochemical assay
Conditions: 1.5 μg crude golgi preparation from A375 cells; C6 ceramide and UDP-glucose at 2×Km; 20 h incubation at room temperature; UDP detected by luminescence
From the text: UDP-Glo™ Glucosylceramide Synthase Biochemical Assay
A UDP-Glo™ glucosylceramide synthase biochemical assay was utilized to evaluate the effect of test compounds on the activity of endogenous levels of GCS enzyme contained within Golgi preparations isolated from human A375 malignant melanoma skin cells. The UDP-Glo™ glucosylceramide synthase assay uses UDP-Glucose as a nucleotide-glycosyl donor and ceramide as substrate acceptor molecules. In the reaction, glucosylceramide synthase (GCS) transfers glucose from UDP-Glucose to ceramide. Glucosylceramide and UDP are released as products.
Using Promega's UDP-Glo™ Glycosyltransferase assay kit (Promega Corporation, Madison, WI, USA (Promega)), GCS activity was indirectly measured by detecting the amount of UDP produced. An aliquot of GCS enzyme (1.5 μg crude golgi preparation, total protein) and titrated test compound were aliquoted to each well and incubated for 30 minutes at room temperature. Substrate mixture was prepared by mixing C6 ceramide (Avanti Polar Lipids, Alabaster, AL USA (Avanti)) (micelles prepared at 0.6 mM in 0.6 mM DOPC) and UDP-glucose (20 μ.M; Promega), at concentrations equivalent to 2×Km, in assay buffer (25 mM HEPES (pH 7.5), 50 mM KCl, 5 mM MgCl2). An equivalent volume of substrate mixture was then added to each well. Following a 20 h incubation at room temperature to allow for GCS turnover of substrate, an equal volume of UDP detection reagent (Promega) was added to each well and incubated for an additional 75 minutes at room temperature to simultaneously convert the accumulated UDP product into ATP and generate light in a luciferase reaction. The generated light was detected using a luminometer. […] luminescence values (RLUs) were normalized to mean “min” and “max” effects, as determined on each plate. “Min” was defined as the mean of the values of the wells treated with vehicle (DMSO) and which represent 0% inhibition; “max” was defined as the mean of the values of the wells treated with a reference inhibitor and which represent the 100% effect. Values for % Emax and EC50 were determined by best-fitting the normalized data to a curve in Activity Base along a four-parameter logistic nonlinear regression (4PL) model (based on the Levenberg-Marquardt algorithm and defined by the equation below): […]
where: n is 4PMin (bottom of the curve); m is 4PMax (top of the curve); i is IP (inflection point of curve); and p is slope. See Levenberg, K., “A Method for the Solution of Certain Problems in Least Squares”, Quart. Appl. Math. 2, (1944), pp 164-168 and Marquardt, D., “An Algorithm for Least Squares Estimation on Nonlinear Parameters”, SIAM J. Appl. Math. 11, (1963) pp 431-441.

Chain of GCS enzyme (glucosylceramide synthase) contained within Golgi preparations isolated from human A375 malignant melanoma skin cells (Q16739 whole entry): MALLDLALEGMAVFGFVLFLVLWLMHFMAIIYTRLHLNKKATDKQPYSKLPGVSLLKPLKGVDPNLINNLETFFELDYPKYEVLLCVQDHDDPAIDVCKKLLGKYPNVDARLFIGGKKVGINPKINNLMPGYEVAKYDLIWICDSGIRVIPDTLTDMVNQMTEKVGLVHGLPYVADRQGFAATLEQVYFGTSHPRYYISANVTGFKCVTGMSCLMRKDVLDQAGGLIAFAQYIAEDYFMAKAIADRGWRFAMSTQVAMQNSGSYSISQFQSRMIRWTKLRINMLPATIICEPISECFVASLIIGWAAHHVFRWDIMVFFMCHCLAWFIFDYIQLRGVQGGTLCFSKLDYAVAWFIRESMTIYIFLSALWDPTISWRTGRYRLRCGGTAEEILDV

SMILES	EC50 [nM]
CC(CO)C12CC(NC(=O)c3cc4cccc(-c5ccccc5OCC(F)(F)F)c4o3)(C1)C2 (racemic) [Compound 9, (R and S)-N-[3-(2-hydroxy-1-methyl-ethyl)-1-bicyclo[1.1.1]pentanyl]-7-[2-(2,2,2-trifluoroethoxy)phenyl] benzofuran-2-carboxamide]	1.7
O=C(NC1CNCCC1(F)F)c1cc2cccc(-c3ccccc3OCC(F)(F)F)c2o1 (racemic) [Compound 14, (R and S)-N-(4,4-difluoro-3-piperidyl)-7-[2-(2,2,2-trifluoroethoxy)phenyl] benzofuran-2-carboxamide]	0.48
O=C(NC1CN2CCC1CC2)c1cc2cc(Cl)cc(-c3ccccc3OCCF)c2o1 (racemic) [Compound 20, (R and S)-5-chloro-7-[2-(2-fluoroethoxy)phenyl]-N-quinuclidin-3-yl-benzofuran-2-carboxamide]	0.02
CCCCOc1ccccc1-c1cccc2cc(C(=O)NC3CN4CCC3CC4)oc12 (racemic) [Compound 21, (R and S)-7-(2-butoxyphenyl)-N-quinuclidin-3-yl-benzofuran-2-carboxamide]	0.021
CCCOc1ccccc1-c1cccc2cc(C(=O)NC3CN4CCC3CC4)oc12 (racemic) [Compound 23, (R and S)-7-(2-propoxyphenyl)-N-quinuclidin-3-yl-benzofuran-2-carboxamide]	0.044
Cc1nn(C)c(C)c1-c1cccc2cc(C(=O)NC3CN4CCC3CC4)oc12 (racemic) [Compound 37, (R and S)-N-(quinuclidin-3-yl)-7-(1,3,5-trimethyl-1H-pyrazol-4-yl)benzofuran-2-carboxamide]	2.4
O=C(NC1CNCCC1(F)F)c1nc2cccc(-c3ccccc3OCC(F)(F)F)c2o1 (racemic) [Compound 39, (R and S)-N-(4,4-difluoropiperidin-3-yl)-7-(2-(2,2,2-trifluoroethoxy)phenyl)benzo[d]oxazole-2-carboxamide]	44
O=C(N[C@@H]1CNCC[C@H]1F)c1cc2cccc(-c3ccccc3OCC(F)(F)F)c2o1 (relative stereo) [Compound 15, N-(trans-4-fluoro-3-piperidyl)-7-[2-(2,2,2-trifluoroethoxy)phenyl] benzofuran-2-carboxamide]	1.7
O=C(N[C@H]1CC[C@H](CO)CC1)c1cc2cc(F)cc(-c3ccccc3OCC(F)(F)F)c2o1 [Compound 1, 5-fluoro-N-(trans-4-(hydroxymethyl)cyclohexyl)-7-(2-(2,2,2-trifluoroethoxy)phenyl) benzofuran-2-carboxamide]	0.99
COc1ccc(C#N)cc1-c1cc(Cl)cc2cc(C(=O)N[C@@H]3CC[C@H](O)C3)oc12 [Compound 5, 5-chloro-7-(5-cyano-2-methoxy-phenyl)-N-[(1R,3S)-3-hydroxycyclopentyl] benzofuran-2-carboxamide]	0.17
O=C(NC12CCC(O)(CC1)C2)c1cc2cccc(-c3cc(Cl)cnc3OC(F)F)c2o1 [Compound 6, 7-[5-chloro-2-(difluoromethoxy)-3-pyridyl]-N-(4-hydroxynorbornan-1-yl)benzofuran-2-carboxamide]	0.87
O=C(NC1CCC(O)CC1F)c1cc2cccc(-c3ccccc3OCC(F)(F)F)c2o1 (stereo not drawn) [Compound 11, N-(2-fluoro-4-hydroxy-cyclohexyl)-7-[2-(2,2,2-trifluoroethoxy)phenyl] benzofuran-2-carboxamide]	7.1
CCCCOc1ccccc1-c1cccc2cc(C(=O)NC(C)(C)CO)oc12 [Compound 13, 7-(2-butoxyphenyl)-N-(2-hydroxy-1,1-dimethyl-ethyl)benzofuran-2-carboxamide]	28
O=C(NC12CCC(CO)(CC1)CC2)c1cc2cc(F)cc(-c3ccccc3OCC(F)(F)F)c2o1 [Compound 17, 5-fluoro-N-[4-(hydroxymethyl)-1-bicyclo[2.2.2]octanyl]-7-[2-(2,2,2-trifluoroethoxy)phenyl] benzofuran-2-carboxamide]	0.89
CC(C)Oc1ccc(C#N)cc1-c1cc(Cl)cc2cc(C(=O)N[C@H]3C[C@@H](O)C3)oc12 [Compound 24, Cis-5-chloro-7-(5-cyano-2-isopropoxy-phenyl)-N-(3-hydroxycyclobutyl) benzofuran-2-carboxamide]	0.044
CC(C)Oc1ccc(C#N)cc1-c1cc(F)cc2cc(C(=O)N[C@H]3C[C@@H](O)C3)oc12 [Compound 26, Cis-7-(5-cyano-2-isopropoxy-phenyl)-5-fluoro-N-(3-hydroxycyclobutyl) benzofuran-2-carboxamide]	0.1
C[C@]1(NC(=O)c2cc3cc(F)cc(-c4ccccc4OCC(F)(F)F)c3o2)CC[C@H](O)CC1 [Compound 27, Cis or trans-5-fluoro-N-(4-hydroxy-1-methyl-cyclohexyl)-7-[2-(2,2,2-trifluoroethoxy)phenyl] benzofuran-2-carboxamide]	0.24
COc1ccc(Cl)cc1-c1cc(F)cc2cc(C(=O)N[C@H]3C[C@@H](CO)C3)oc12 [Compound 28, Cis-7-(5-chloro-2-methoxy-phenyl)-5-fluoro-N-[3-(hydroxymethyl)cyclobutyl]be nzofuran-2-carboxamide]	0.6
CC(C)Oc1ccc(C#N)cc1-c1cc(F)cc2cc(C(=O)NC(C)(C)CO)oc12 [Compound 29, 7-(5-cyano-2-isopropoxy-phenyl)-5-fluoro-N-(2-hydroxy-1,1-dimethyl-ethyl)benzofuran-2-carboxamide]	0.82

Next, values leading:

EC50 [nM]	SMILES
140	CCCOc1ccccc1-c1cccc2cc(C(=O)NC3CCNCC3(F)F)oc12 (single isomer, unassigned) [Compound 18, N-[(4R or 4S)-3,3-difluoro-4-piperidyl]-7-(2-propoxyphenyl)benzofuran-2-carboxamide]
1.4	CCCOc1ccccc1-c1cccc2cc(C(=O)NC3CNCCC3(F)F)oc12 (single isomer, unassigned) [Compound 36, (R or S)-N-(4,4-difluoro-3-piperidyl)-7-(2-propoxyphenyl)benzofuran-2-carboxamide]
0.065	Cc1nn(C)c(C)c1-c1cccc2cc(C(=O)Nc3ccc4cnccc4n3)oc12 [Compound 2, N-(1,6-naphthyridin-2-yl)-7-(1,3,5-trimethylpyrazol-4-yl)benzofuran-2-carboxamide]
0.097	COc1ccc(C#N)cc1-c1cccc2cc(C(=O)NC34CCC(O)(CC3)C4)oc12 [Compound 3, 7-(5-cyano-2-methoxy-phenyl)-N-(4-hydroxynorbornan-1-yl)benzofuran-2-carboxamide]
0.1	N#Cc1ccc(OC(F)F)c(-c2cccc3cc(C(=O)NC45CCC(O)(CC4)C5)oc23)c1 [Compound 4, 7-[5-cyano-2-(difluoromethoxy)phenyl]-N-(4-hydroxynorbornan-1-yl)benzofuran-2-carboxamide]
0.99	O=C(Nc1cccnc1)c1cc2cccc(-c3ccccc3OCC(F)(F)F)c2o1 [Compound 7, N-(3-pyridyl)-7-[2-(2,2,2-trifluoroethoxy)phenyl] benzofuran-2-carboxamide]
1.1	COc1ncc(Cl)cc1-c1cccc2cc(C(=O)NC34CCC(O)(CC3)C4)oc12 [Compound 8, 7-(5-chloro-2-methoxy-3-pyridyl)-N-(4-hydroxynorbornan-1-yl)benzofuran-2-carboxamide]
21	Cc1cccc(NC(=O)c2cc3cccc(-c4c(C)nn(C)c4C)c3o2)n1 [Compound 12, N-(6-methyl-2-pyridyl)-7-(1,3,5-trimethylpyrazol-4-yl)benzofuran-2-carboxamide]
0.26	COc1ccc(C#N)cc1-c1cccc2cc(C(=O)N[C@@H]3CC[C@H](O)C3)oc12 [Compound 19, 7-(5-cyano-2-methoxyphenyl)-N-((1R,3S)-3-hydroxycyclopentyl)benzofuran-2-carboxamide]
0.023	O=C(Nc1ccc2cnccc2n1)c1cc2cccc(-c3ccccc3OCC(F)(F)F)c2o1 [Compound 22, N-(1,6-naphthyridin-2-yl)-7-[2-(2,2,2-trifluoroethoxy)phenyl] benzofuran-2-carboxamide]
0.047	N#Cc1ccc(Cl)c(-c2cccc3cc(C(=O)N[C@@H]4CC[C@H](O)C4)oc23)c1 [Compound 25, 7-(2-chloro-5-cyano-phenyl)-N-[(1R,3S)-3-hydroxycyclopentyl] benzofuran-2-carboxamide]
